Experimental data reported in US11583524B2, “Inhibitors of the interaction between MDM2 and P53” (Janssen Pharmaceutica NV, priority 2007, dated 2023).

What was measured:
Format in all cases: cell-based, human
p53 in A2780 cells = assay: p53 ELISA (preservation of p53 in A2780 cells); settings: lowest dose giving at least 140% of the p53 value in the control, 16 hours treatment; for minimal effective concentration: Homo sapiens, read-out: p53-elisa LAD
Procedure: The capacity of the compounds to preserve p53 in A2780 cells was measured with the p53 enzyme linked immunosorbent assay (ELISA). The p53 assay is a “sandwich” enzyme immunoassay employing two polyclonal antibodies. A polyclonal antibody, specific for the p53 protein, has been immobilized onto the surface of the plastic wells. Any p53 present in the sample to be assayed will bind to the capture antibody. The biotinylated detector polyclonal antibody also recognizes p53 protein, and will bind to any p53, which has been retained by the capture antibody. The detector antibody, in turn, is bound by horseradish peroxidase-conjugated streptavidin. The horseradish peroxidase catalyses the conversion of the chromogenic substrate o-phenylene diamine, the intensity of which is proportional to the amount of p53 protein bound to the plate. The coloured reaction product is quantified using a spectrophotometer. Quantitation is achieved by the construction of a standard curve using known concentrations of purified recombinant HIS tagged p53 protein (see example C.1).
A2780 cells (ATCC) were cultivated in RPMI 1640 supplemented with 10% fetal calf serum (FCS), 2 mM L-glutamine and gentamycin at 37° C. in a humidified incubator with 5% CO2.
A2780 cells were seeded at 20.000 cells per well in a 96 well plate, cultured for 24 hours and treated with compound for 16 hours at 37° C. in a humidified incubator. After incubation, the cells were washed once with phosphate-buffered saline and 30 μl, per well, low salt RIPA buffer (20 mM tris, pH7.0, 0.5 mM EDTA, 1% Nonidet P40, 0.5% DOC, 0.05% SDS, 1 mM PMSF, 1 μg/ml aprotinin and 0.5 μ/ml leupeptin) was added. Plates were placed on ice for 30 minutes to complete the lysis. p53 protein was detected in de lysates by using the sandwich ELISA, described below.
High binding polystyrene EIA/RIA 96 well plates (Costar 9018) were coated with the capture antibody pAb1801 (Abcam ab28-100) at a concentration of 1 μg/ml in coating buffer (0.1 M NaHCO3 pH8.2), 50 μl per well. The antibody was allowed to adhere overnight at 4° C. Coated plates were washed once with phosphate-buffered saline (PBS)/0.05% Tween 20 and 300 μl of blocking buffer (PBS, 1% bovine serum albumins (BSA)) was added, for an incubation period of 2 hours at room temperature. Dilutions of purified recombinant HIS tagged p53 protein, ranging from 3-200 ng/ml, were made in blocking buffer and used as standards.
Plates were washed twice with PBS/0.05% Tween 20 and blocking buffer or standards were added at 80 μl/well. To the standards, 20 μl of lysis buffer was added. The samples were added to the other wells at 20 μl lysate/well. After an overnight incubation at 4° C., plates were washed twice with PBS/0.05% Tween 20. Aliquots of 100 μl secondary polyclonal antibody p53(FL-393) (Tebubio, sc-6243) at a concentration of 1 μg/ml in blocking buffer were added to each well and allowed to adhere for 2 hours at room temperature. Plates were washed three times with PBS/0.05% Tween 20. Detection antibody anti-rabbit HRP (sc-2004, Tebubio) at 0.04 μg/ml in PBS/1% BSA was added and incubated for 1 hour at room temperature. Plates were washed three times with PBS/0.05% Tween 20 and 100 μl of substrate buffer was added (substrate buffer was prepared shortly before use by adding 1 tablet of 10 mg o-phenylene diamine (OPD) from Sigma and 125 μl 3% H2O2 to 25 ml OPD buffer: 35 mM citric acid, 66 mM Na2HPO4, pH5.6). After 5 to 10 minutes, colour reaction was stopped by adding 50 μl stop buffer (1 M H2SO4) per well. The absorbance at dual wavelengths of 490/655 nm was measured using a Biorad micro plate reader and the results were then analyzed.
For each experiment, controls (containing no drug) and a blank incubation (containing no cells or drugs) were run in parallel. The blank value was subtracted from all control and sample values. For each sample, the value of p53 (in absorbance units) was expressed as the percentage of the value for p53 present in the control. […]

U87MG glioma cells = assay: Alamar Blue cell proliferation assay, U87MG; settings: 4-day incubation; for IC50: Homo sapiens, U-87 MG, 96 h, read-out: U87MG cell proliferation inhibition pIC50 (converted)
Procedure: The human U87MG glioma cells were cultured in DMEM medium supplemented with 2 mM L-Glutamine, 1 mM Sodium Pyruvate, 1.5 g/L Sodium Bicarbonate, 50 μg/ml gentamicin and 10% heat inactivated fetal calf serum. (U87MG cells are human glioblastoma cells with wild type p53. In this cell line MDM2 tightly controls p53 expression).
(§1) Resazurin was purchased from Aldrich (Prod. No. 199303). Potassium ferrocyanide, potassium ferricyanide, KH2PO4 and K2HPO4 were purchased from Sigma (Prod. Nos. P9387, P8131, P5655 and P8281, respectively).
(§2) Potassium Phosphate Buffer 0.1 M (PPB) was made as follows: 2.72 gram KH2PO4 and 13.86 gram K2HPO4 were dissolved in 500 ml milli-Q H2O, the pH was adjusted to pH 7.4 and the volume was brought to 1 litre with milli-Q H2O; the buffer was filter sterilised and stored at room temperature. Resazurin stock solution (PPB-A) was prepared fresh by dissolving 45 mg resazurin in 15 ml PBS. 30 mM potassium ferricyanide (PPB-B) was prepared by dissolving 0.987 gram potassium ferricyanide in 100 ml PPB. 30 mM potassium ferrocyanide (PPB-C) was prepared by dissolving 1.266 gram potassium ferrocyanide in 100 ml PPB.
(§3) Mixture of PPB-A, PPB-B and PPB-C was prepared by mixing equal volumes of the respective solutions. Resazurin work solution (herein termed “Alamar Blue” solution) was prepared by diluting said mixture 20×(vol/vol) in PPB and filter sterilising; the Alamar Blue solution could be kept at 4° C. for a maximum of 2 weeks.
(§4) For experiments in 384 wells plates the cells were seeded at a density of 5×10^3 cells/ml in Falcon 384-well culture plates (Life Technologies, Merelbeke, Belgium), black with clear bottom, in 45 μl culture medium. Cells were allowed to adhere to plastic for 24 hr. The tested compound was pre-diluted (1/50 in culture medium) and 5 μl pre-diluted compound was added to the wells. Following 4-day incubation, 10 μl of the Alamar Blue solution was added to each well and the cells were further incubated for 5 hrs (A2780) or 6 hrs (U87MG) at 37° C. The fluorescence intensity was measured for each well with a Fluorescence plate reader (Fluorskan, Labsystems, 540 nm excitation and 590 nm emission)
(§5) The antiproliferative activity was calculated as percentage of remaining viable cells in treated versus control (untreated cells) conditions. Within an experiment, the result for each experimental condition is the mean of 3 replicate wells. When appropriate, the experiments were repeated to establish full concentration-response curves. When appropriate, IC50-values (concentration of the drug, needed to reduce cell growth to 50% of the control) were computed using probit analysis for graded data (Finney, D. J., Probit Analyses, 2nd Ed. Chapter 10, Graded Responses, Cambridge University Press, Cambridge 1962). Herein the effects of test compounds are expressed as pIC50 (the negative log value of the IC50-value) (see Table 4).

[1] = system: A2780 ovarian cancer cells; assay: Alamar Blue cell proliferation assay, A2780; settings: 4-day incubation; for IC50: Homo sapiens, 96 h, read-out: A2780 cell proliferation inhibition pIC50 (converted)
Procedure: Cellular activity of the compounds of formula (I) was determined on A2780 tumour cells using a colorimetric assay for cell toxicity or survival (see example C.2).
The human A2780 ovarian cancer cells were a kind gift from Dr. T. C. Hamilton (Fox Chase Cancer Centre, Pennsylvania, U.S.A.). The cells were cultured in RPMI 1640 medium supplemented with 2 mM L-Glutamine, 50 μg/ml gentamicin and 10% fetal calf serum.
as §1, §2, §3, §4, §5

Row | SMILES | U87MG cell proliferation inhibition pIC50 (U87MG glioma cells) | A2780 cell proliferation inhibition pIC50 [1] | IC50 (U87MG glioma cells) [µM] | IC50 [1] [µM] | p53-elisa LAD (p53 in A2780 cells) [µM] | minimal effective concentration (p53 in A2780 cells) [µM]
1 | OCc1cc(Nc2cc(F)c(NCCc3c[nH]c4ccccc34)c(F)c2)ccn1 [Compound 14] | – | – | > 10 | > 10 | – | > 10
2 | COc1ccc2c(CCNc3c(F)cc(Nc4ccnc5c4CCC5O)cc3F)c[nH]c2c1 (centres unmarked) [Compound 19] | 5.15 | <5 | – | – | >10.0 | –
3 | Clc1cc(Nc2ccncc2)cc(Cl)c1NCCc1c[nH]c2ccccc12 [Compound 20] | <5 | <5 | – | – | >10.0 | –
4 | COc1cccc2c(CCNc3c(Cl)cc(Nc4ccnc(CO)c4)cc3Cl)c[nH]c12 [Compound 28] | <5 | <5 | – | – | >10.0 | –
5 | COc1cccc2c(CCNc3c(Cl)cc(Nc4ccnc5ccccc45)cc3Cl)c[nH]c12 [Compound 32] | 5.48 | <5 | – | – | >10.0 | –
6 | OC1CCc2c(Nc3cc(Cl)c(NCCc4c[nH]c5ccccc45)c(Cl)c3)ccnc21 (centres unmarked) [Compound 33] | <5 | <5 | – | – | 3.0 | –
7 | Cc1[nH]c2ccccc2c1CCNc1c(Cl)cc(Nc2ccnc3c2CCC3O)cc1Cl (centres unmarked) [Compound 34] | 5.14 | 5.67 | – | – | 1.0 | –
8 | COc1ccc2c(CCNc3c(Cl)cc(Nc4ccnc5c4CCC5O)cc3Cl)c[nH]c2c1 (centres unmarked) [Compound 36] | 5.08 | <5 | – | – | 10.0 | –
9 | OCc1cc(NCCc2c[nH]c3ccccc23)c(Br)cc1Nc1ccnc2c1CCC2O (centres unmarked) [Compound 54] | – | <5 | – | – | >10.0 | –
10 | COc1c(Nc2ccnc3c2CCC3O)ccc(NCCc2c[nH]c3c(C(C)(C)O)cccc23)c1F (centres unmarked) [Compound 63] | – | – | 0.468 | 0.0741 | – | 1

Further lines, with some results ahead:

Row | U87MG cell proliferation inhibition pIC50 (U87MG glioma cells) | A2780 cell proliferation inhibition pIC50 [1] | IC50 (U87MG glioma cells) [µM] | IC50 [1] [µM] | SMILES | p53-elisa LAD (p53 in A2780 cells) [µM] | minimal effective concentration (p53 in A2780 cells) [µM]
11 | 5.18 | <5 | – | – | COc1ccc2c(CCNc3c(F)cc(Nc4ccncc4)cc3F)c[nH]c2c1 [Compound 13] | >10.0 | –
12 | <5 | <5 | – | – | COc1ccc2c(CCNc3c(F)cc(Nc4ccnc(CO)c4)cc3F)c[nH]c2c1 [Compound 16] | >10.0 | –
13 | <5 | <5 | – | – | Cc1cccc2c(CCNc3c(Cl)cc(Nc4ccncc4)cc3Cl)c[nH]c12 [Compound 21] | >10.0 | –
14 | 5.29 | <5 | – | – | COc1ccc2c(CCNc3c(Cl)cc(Nc4ccncc4)cc3Cl)c[nH]c2c1 [Compound 22] | >10.0 | –
15 | <5 | <5 | – | – | COc1cccc2c(CCNc3c(Cl)cc(Nc4ccncc4)cc3Cl)c[nH]c12 [Compound 23] | >10.0 | –
16 | <5 | <5 | – | – | COc1ccc2c(CCNc3c(Cl)cc(Nc4ccnc(CO)c4)cc3Cl)c[nH]c2c1 [Compound 27] | >10.0 | –
17 | 5.06 | 5.08 | – | – | Cc1cccc2c(CCNc3c(Cl)cc(Nc4ccnc5ccccc45)cc3Cl)c[nH]c12 [Compound 30] | 1.0 | –
18 | <5 | <5 | – | – | Cc1cccc2c(CCNc3c(Cl)cc(Nc4ccnc5c4CCC5O)cc3Cl)c[nH]c12 (centres unmarked) [Compound 35] | 1.0 | –
19 | <5 | <5 | – | – | COc1cccc2c(CCNc3c(Cl)cc(Nc4ccnc5c4CCC5O)cc3Cl)c[nH]c12 (centres unmarked) [Compound 37] | 3.0 | –
20 | 5.33 | <5 | – | – | OCc1cc(Nc2cc(Br)c(NCCc3c[nH]c4ccccc34)cc2CO)ccn1 [Compound 52] | >10.0 | –
21 | <5 | <5 | – | – | N#Cc1c(NCCc2c[nH]c3ccccc23)ccc(Nc2ccnc3c2CCC3O)c1N1CCOCC1 (centres unmarked) [Compound 57] | >10.0 | –
22 | <5 | <5 | – | – | Cc1cccc2c(CCNc3ccc(Nc4ccnc5c4CCC5O)c(N4CCOCC4)c3C#N)c[nH]c12 (centres unmarked) [Compound 58] | >10.0 | –
23 | – | – | 1.29 | 0.912 | COc1c(Nc2ccnc3c2CCC3O)ccc(NCCc2c[nH]c3c(CO)cccc23)c1F (centres unmarked) [Compound 62] | – | 3
